Laboratory results reported in BindingDB's records for doi:10.7270/Q22J699S (Nmmlsc, 2010).

Each compound was assayed against Guanine nucleotide-binding protein G(o) subunit alpha (Homo sapiens, UniProt P09471) (assay: RGS8-Galphao interaction regulators, SAR follow-up, biochemical, multiplexed bead assay, additional SAR round (AID 2827)).
Chain of Guanine nucleotide-binding protein G(o) subunit alpha (P09471 whole entry): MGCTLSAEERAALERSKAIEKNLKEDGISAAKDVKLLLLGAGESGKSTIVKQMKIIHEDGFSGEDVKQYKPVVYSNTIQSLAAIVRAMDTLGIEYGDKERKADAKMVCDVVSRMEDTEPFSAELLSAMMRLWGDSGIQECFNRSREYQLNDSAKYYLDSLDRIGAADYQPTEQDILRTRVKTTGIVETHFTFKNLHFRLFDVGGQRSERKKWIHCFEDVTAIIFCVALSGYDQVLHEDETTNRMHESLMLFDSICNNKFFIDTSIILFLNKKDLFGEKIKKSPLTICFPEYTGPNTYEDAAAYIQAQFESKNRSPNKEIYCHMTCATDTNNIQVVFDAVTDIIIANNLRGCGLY

EC50, > 30 µM:
NC(=O)c1sc2cc([N+](=O)[O-])ccc2c1Cl [KSC-1-100]
O=C(NCCCN1CCOCC1)c1sc2cc([N+](=O)[O-])ccc2c1Cl [3-chloranyl-N-(3-morpholin-4-ylpropyl)-6-nitro-1-benzothiophene-2-carboxamide]
O=C(NCCCn1ccnc1)c1sc2cc([N+](=O)[O-])ccc2c1Cl [3-chloro-N-[3-(1-imidazolyl)propyl]-6-nitro-1-benzothiophene-2-carboxamide]
O=C(c1sc2cc([N+](=O)[O-])ccc2c1Cl)N1CCNCC1
Cc1ccc2c(Cl)c(C(=O)NCCCN3CCOCC3)sc2c1 [KUC103874N]
